The source of these data is patent US20140371171A1, “Aqueous Lock Composition Comprising Ethanol and a Polysaccharide Anticoagulant” (UNIVERSITE D'AUVERGNE CLERMONT I, priority 2012, published 2014).

What all share (format): physicochemical
Data set [1] is described as follows: Ethanol concentration that does not cause the lock composition to precipitate, varying the heparin content. As to conditions: observed after 48 hours. As for the experimental part:
The lock compositions tested were as follows: • composition comprising a mixture of the nadroparin calcium and ethanol • composition comprising a mixture of the tinzaparin sodium and ethanol, • composition comprising a mixture of the dalteparin sodium and ethanol, • composition comprising a mixture of the enoxaparin sodium and ethanol. […] The compositions were tested at ambient temperature and at 37° C. and the results were observed after 48 hours.

A short description of data set [2]: Visual observation of precipitation in ethanol/enoxaparin sodium mixtures. The note with it: enoxaparin sodium 400 IU/mL. How it is done:
Various mixtures of ethanol/enoxaparin sodium were prepared in 5 mL glass hemolysis tubes combining either: • a) a fixed concentration of enoxaparin sodium with 400 IU/mL (corresponding to the dose used in an antithrombotic preventive lock) in a range of increasing concentrations of ethanol (30%, 40%, 45%, 50%, 60% and 70% by volume (v/v)), the dilutions of ethanol having been made in physiological serum solution (NaCl in a concentration of 0.9 g/100 ml). • b) increasing concentrations of enoxaparin sodium (50, 100, 400, 500 and 1,000 IU/mL) in an ethanol solution of fixed concentration (40, 45 or 50% v/v). The visual observation of different ethanol/enoxaparin mixtures was carried out by way of an assessment of the presence (or absence) of precipitation at the time of effecting the contacting of the two solutions; the observed phenomena corresponding, either to the absence (level 0 noted −), or the presence of a precipitation. The extent of the precipitation was assessed, either based on the appearance of a cloudiness, or on the formation of a deposit in the form of droplets and the levels were evaluated by the scores: +, ++, +++. […] The observation was monitored over time, that is after 1 minute, 1 hour, 24 hours, 48 hours and 72 hours, of contact, and this was done at two temperatures, 20° C. and 37° C.

A short description of data set [3]: Assay of enoxaparin by HPLC-ELSD in supernatant. The note with it: enoxaparin sodium 400 IU/mL; ethanol 70% v/v. As for the experimental part: The assaying of enoxaparin was performed by a method of coupling high-performance liquid chromatography (HPLC) with an evaporative light scattering detector (ELSD) method. In order to be within the zone of linearity of the detector response, the samples were diluted to one tenth in the physiological serum solution. The analysis was carried out in the mixtures combining enoxaparin sodium 400 IU/mL with increasing concentrations of ethanol (30 to 70% (V/V)), in comparison with a calibration range of the enoxaparin composition (marketed under the trade name Lovenox®) prepared in the physiological serum solution at the following concentrations: 6 IU/mL, 12 IU/mL, 40 IU/mL, 80 IU/mL, 120 IU/mL.
For the samples presenting a cloudiness effect, a preliminary centrifugation at 1,600 g for 5 minutes was carried out and only the supernatant was subsequently analysed.
The operating conditions for the chromatographic separation were as follows: • analytical column measuring 150 mm in length and 4.6 mm in diameter, filled with a stationary phase of C18 5 μm. • separation of components in isocratic mode making use of a mixture of methanol/water, 50/50 (V/V) at a flow rate of 0.3 mL/min. • detection using an evaporative light scattering detector (ELSD): evaporation temperature of 40° C., gain of the detector=3 and pressure of nitrogen (nebulizer gas)=3.5 bar.

For enoxaparin sodium, the “Ethanol content (% v/v) at 37° C. that does not cause precipitation” value in data set [1] (heparin content 10 IU/mL) came to 48.2 % v/v; in data set [1] (heparin content 500 IU/mL), 45.8 % v/v; in data set [1] (heparin content 1,000 IU/mL), 43.3 % v/v. Besides, the “Ethanol content (% v/v) at ambient temperature that does not cause precipitation” value in data set [1] (heparin content 10 IU/mL) amounted to 47.6 % v/v; in data set [1] (heparin content 500 IU/mL), 40.7 % v/v; in data set [1] (heparin content 1,000 IU/mL), 33.7 % v/v. Further, in data set [2] (ethanol 60 and 70% v/v), the “visual appearance of the mixture (cloudiness)” value is given as “the cloudiness increases progressively as the ethanol content increases”. For the same substance, in data set [2] (ethanol less than or equal to 40% v/v, up to 72 hours at 20° C. or 37° C.), the “visual appearance of the mixture (precipitation)” value was “remains clear and colourless”. In addition, in data set [3], the “enoxaparin content levels found in the supernatant after centrifugation” value is recorded as “not detectable”.

As to nadroparin calcium, the “Ethanol content (% v/v) at 37° C. that does not cause precipitation” value in data set [1] (heparin content 10 IU/mL) was found to be 44.6 % v/v; in data set [1] (heparin content 500 IU/mL), 41.7 % v/v; in data set [1] (heparin content 1,000 IU/mL) it was 38.7 % v/v. The “Ethanol content (% v/v) at ambient temperature that does not cause precipitation” value in data set [1] (heparin content 10 IU/mL) was 43.7 % v/v; in data set [1] (heparin content 500 IU/mL) it was 41.7 % v/v; in data set [1] (heparin content 1,000 IU/mL), 39.7 % v/v.

Take dalteparin sodium: the results for the “Ethanol content (% v/v) at 37° C. that does not cause precipitation” value in data set [1] (heparin content 10 IU/mL), in data set [1] (heparin content 500 IU/mL) and in data set [1] (heparin content 1,000 IU/mL) were 47.8 % v/v, 41.9 % v/v and 35.9 % v/v, respectively. In addition, the “Ethanol content (% v/v) at ambient temperature that does not cause precipitation” value came to 44.6 % v/v in data set [1] (heparin content 10 IU/mL), 35.7 % v/v in data set [1] (heparin content 500 IU/mL) and 26.7 % v/v in data set [1] (heparin content 1,000 IU/mL).

On to tinzaparin sodium, for which the “Ethanol content (% v/v) at 37° C. that does not cause precipitation” value was determined as 44.0 % v/v in data set [1] (heparin content 10 IU/mL), 41.0 % v/v in data set [1] (heparin content 500 IU/mL) and 38.0 % v/v in data set [1] (heparin content 1,000 IU/mL). Further, the “Ethanol content (% v/v) at ambient temperature that does not cause precipitation” value is 42.1 % v/v in data set [1] (heparin content 10 IU/mL), 34.3 % v/v in data set [1] (heparin content 500 IU/mL) and 26.3 % v/v in data set [1] (heparin content 1,000 IU/mL).
